Experimental data: the supplement of paper PMC10307832

Columns and labels:
Experiment in all cases: relative viability (nuclei count vs DMSO), 5 days (fraction); higher = more cells survive
TGX 221 + Decitabine = compound: CC1=CN2C(=O)C=C(N=C2C(=C1)C(C)NC3=CC=CC=C3)N4CCOCC4 [TGX 221] + Nc1ncn([C@H]2C[C@H](O)[C@@H](CO)O2)c(=O)n1 [Decitabine] (partner 2 µM)
In short: (§1)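 After 5 days of treatment, lung cancer cells in 1536-well plates were fixed and stained in a single step (final 0.05% Triton X-100, 1% formaldehyde, 1 ug/ml Hoechst) and their nuclei counted on 4× images. Treatment had been applied by pin tool the day after seeding as one drug alone or as a fixed anchor-drug dose with five library-drug doses (not always all listed) in √10 steps. Relative viability is the nuclei count of treated wells divided by that of vehicle wells, and values are medians of duplicate plates.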

TGX 221 + Alpelisib = compound: CC1=CN2C(=O)C=C(N=C2C(=C1)C(C)NC3=CC=CC=C3)N4CCOCC4 [TGX 221] + Cc1nc(NC(=O)N2CCC[C@H]2C(N)=O)sc1-c1ccnc(C(C)(C)C(F)(F)F)c1 [Alpelisib] (partner 2 µM)
In short: as §1

[1] = compound: O=C(CCCCCCNC(=O)c1cnc(N(c2ccccc2)c2ccccc2)nc1)NO [Ricolinostat] + CC(=O)c1c(C)c2cnc(Nc3ccc(N4CCNCC4)cn3)nc2n(C2CCCC2)c1=O [Palbociclib] (partner 0.5 µM)
In short: as §1

[2] = compound: O=C(CCCCCCNC(=O)c1cnc(N(c2ccccc2)c2ccccc2)nc1)NO [Ricolinostat] + O=C(CCCCCCC(=O)Nc1ccccc1)NO [Vorinostat] (partner 1 µM)
In short: as §1

Cell Line	relative viability (TGX 221 + Decitabine; first compound 0.08 µM)	relative viability (TGX 221 + Decitabine; first compound 0.253 µM)	relative viability (TGX 221 + Decitabine; first compound 0.8 µM)	relative viability (TGX 221 + Decitabine; first compound 2.53 µM)	relative viability (TGX 221 + Decitabine; first compound 8 µM)	relative viability (TGX 221 + Alpelisib; first compound 0.08 µM)	relative viability (TGX 221 + Alpelisib; first compound 0.253 µM)	relative viability (TGX 221 + Alpelisib; first compound 0.8 µM)	relative viability (TGX 221 + Alpelisib; first compound 2.53 µM)	relative viability (TGX 221 + Alpelisib; first compound 8 µM)	relative viability ([1]; first compound 0.08 µM)	relative viability ([1]; first compound 0.253 µM)	relative viability ([1]; first compound 0.8 µM)	relative viability ([1]; first compound 2.53 µM)	relative viability ([2]; first compound 0.08 µM)	relative viability ([2]; first compound 0.253 µM)	relative viability ([2]; first compound 0.8 µM)	relative viability ([2]; first compound 2.53 µM)
A-427	0.548	0.55	0.558	0.594	0.519	1.04	1.11	1.14	0.976	1.08	0.503	0.531	0.474	0.457	0.789	0.789	0.624	0.752
NCI-H1975	0.542	0.386	0.385	0.362	0.39	0.585	0.454	0.465	0.446	0.362	0.709	0.607	0.607	0.471	0.655	0.671	0.566	0.609
HCC-827	0.292	0.359	0.281	0.305	0.327	0.929	0.807	0.904	0.482	0.438	0.335	0.548	0.487	0.573	0.768	0.86	0.574	0.915
UMC-11	0.522	0.545	0.725	0.572	0.62	0.955	0.961	0.966	1.03	1.06	0.368	0.338	0.339	0.295	0.389	0.377	0.265	0.187
NCI-H3122	0.405	0.33	0.422	0.378	0.548	0.758	0.735	0.717	0.681	0.787	0.149	0.208	0.186	0.235	0.966	0.848	0.853	0.708
LXF-289	0.37	0.371	0.369	0.348	0.375	0.948	0.979	0.947	0.898	0.898	0.618	0.552	0.599	0.609	0.697	0.723	0.681	0.483
NCI-H647	0.288	0.406	0.385	0.355	0.384	0.867	0.862	0.65	0.624	0.459	0.391	0.338	0.407	0.266	0.562	0.464	0.52	0.441
COR-L23	0.445	0.402	0.483	0.487	0.489	0.807	0.659	0.759	0.722	0.742	0.261	0.227	0.203	0.156	0.406	0.383	0.388	0.297
BEN	0.679	0.669	0.667	0.715	0.715	0.982	0.942	0.899	0.899	0.88	0.461	0.474	0.499	0.451	0.517	0.543	0.592	0.498
LC-2-ad	0.765	0.793	0.822	0.826	0.742	0.81	–	0.722	0.645	0.62	0.52	0.418	0.465	0.488	0.68	0.67	0.64	0.458
NCI-H650	0.326	0.301	0.318	0.343	0.343	1.23	1.02	1.13	0.912	0.791	0.33	0.356	0.32	0.253	0.355	0.434	0.367	0.296
NCI-H1563	–	–	–	–	–	0.834	0.777	0.658	0.607	0.594	–	–	–	–	–	–	–	–
NCI-H1793	0.442	0.369	0.479	0.381	0.37	0.611	0.503	0.482	0.446	0.406	0.306	0.31	0.281	0.329	0.519	0.72	0.566	0.726
HCC-78	0.589	0.736	0.699	0.693	0.68	0.299	0.23	–	0.2	0.175	–	0.438	0.484	0.479	–	0.433	0.395	0.362
LCLC-97TM1	0.206	0.22	0.233	0.228	0.225	0.261	0.246	0.287	0.199	0.214	0.198	0.202	0.232	0.212	0.487	0.556	0.628	0.333
NCI-H2009	0.384	0.339	0.352	0.471	0.327	1.16	1.07	1.1	0.907	0.733	0.164	0.202	0.222	0.296	0.614	0.68	0.711	0.53
H3255	0.54	0.595	0.53	0.58	0.553	0.568	0.581	0.534	0.448	0.378	0.336	0.307	0.292	0.33	0.735	1.09	0.672	0.591
EPLC-272H	0.352	0.349	0.316	0.343	0.332	0.877	0.828	0.799	–	0.62	–	0.325	0.332	0.237	0.343	0.396	0.313	0.174
NCI-H1734	0.508	0.527	0.492	0.518	0.431	0.619	0.509	0.562	0.448	0.448	0.343	0.35	0.4	0.389	0.725	0.891	0.702	0.67
NCI-H2087	0.231	0.261	0.235	0.252	0.304	0.978	1.13	1.13	1.12	1.31	0.263	0.165	0.178	0.0962	0.398	0.42	0.728	0.193
NCI-H522	0.717	0.624	0.696	0.587	0.64	–	–	–	–	–	1.14	1.18	1.08	1.21	0.836	0.919	0.855	0.628
NCI-H1666	0.649	0.738	0.76	0.709	0.664	0.855	0.742	0.735	0.645	0.654	0.741	0.664	0.644	0.598	0.933	1.01	1.01	0.847

Cell Line	relative viability (TGX 221 + Decitabine; first compound 0.08 µM)	relative viability (TGX 221 + Decitabine; first compound 0.253 µM)	relative viability (TGX 221 + Decitabine; first compound 0.8 µM)	relative viability (TGX 221 + Decitabine; first compound 2.53 µM)	relative viability (TGX 221 + Decitabine; first compound 8 µM)	relative viability (TGX 221 + Alpelisib; first compound 0.08 µM)	relative viability (TGX 221 + Alpelisib; first compound 0.253 µM)	relative viability (TGX 221 + Alpelisib; first compound 0.8 µM)	relative viability (TGX 221 + Alpelisib; first compound 2.53 µM)	relative viability (TGX 221 + Alpelisib; first compound 8 µM)	relative viability ([1]; first compound 0.08 µM)	relative viability ([1]; first compound 0.253 µM)	relative viability ([1]; first compound 0.8 µM)	relative viability ([1]; first compound 2.53 µM)	relative viability ([2]; first compound 0.08 µM)	relative viability ([2]; first compound 0.253 µM)	relative viability ([2]; first compound 0.8 µM)	relative viability ([2]; first compound 2.53 µM)
NCI-H1915	0.254	0.255	0.256	0.257	0.257	1	0.999	1.08	1.1	1.01	0.488	0.521	0.474	0.419	0.468	0.51	0.467	0.326
RERF-LC-KJ	0.632	0.75	0.762	0.692	0.678	0.66	0.713	0.603	0.644	0.637	1.02	1.21	1.25	0.902	0.583	0.657	0.639	0.434
NCI-H520	0.449	0.428	0.306	0.341	0.335	0.696	0.45	0.42	0.243	0.254	–	0.256	0.262	0.27	–	0.659	0.629	0.532
NCI-H2085	0.59	0.524	0.548	0.414	0.451	0.94	0.689	0.57	0.424	0.406	–	0.461	0.426	0.478	–	0.751	0.731	0.631
LCLC-103H	0.777	0.704	0.677	0.725	0.754	1.03	0.896	0.776	0.743	0.654	0.472	0.413	0.495	0.514	0.662	0.738	0.639	0.522
NCI-H2342	0.693	0.638	0.725	0.68	0.773	–	–	–	–	–	0.555	0.473	0.509	0.577	0.693	0.694	0.757	0.745
PC-14	0.206	0.203	0.228	0.281	0.207	1.01	0.822	0.817	0.919	0.857	0.57	0.478	0.462	0.406	0.576	0.691	0.593	0.396
Calu-6	–	–	–	–	–	0.986	0.8	0.948	0.917	0.883	–	–	–	–	–	–	–	–
A549	0.337	0.25	0.294	0.26	0.349	0.63	0.52	0.542	0.377	0.28	–	–	–	–	–	–	–	–
HCC-366	0.333	0.305	0.345	0.344	0.365	0.307	0.234	0.245	0.0984	0.127	0.383	0.335	0.344	0.257	0.296	0.327	0.313	0.165
NCI-H1703	–	–	–	–	–	0.269	0.222	0.176	0.267	0.235	–	–	–	–	–	–	–	–
NCI-H1299	–	–	–	–	–	0.991	1.07	1.12	1.14	1.17	–	–	–	–	–	–	–	–
ChaGo-K-1	0.485	0.519	0.563	0.544	0.548	–	–	–	–	–	0.93	0.947	0.901	0.837	0.717	0.762	0.73	0.523
EBC-1	–	–	–	–	–	0.738	0.526	0.426	0.321	0.32	–	–	–	–	–	–	–	–
NCI-H596	0.987	1.16	1.14	1.08	0.963	0.423	0.419	0.445	0.403	0.387	–	–	–	–	0.61	0.645	0.567	0.432
NCI-H1650	0.433	0.376	0.386	0.486	0.43	–	–	–	–	–	0.322	0.294	0.344	0.275	0.544	0.535	0.485	0.372
NCI-H1648	–	0.554	0.499	0.474	0.523	–	–	–	–	–	–	0.305	0.252	0.196	–	0.483	0.458	0.254
CAL-12T	–	–	–	–	–	1.17	1.1	1.21	0.852	0.64	0.443	0.464	0.413	0.43	0.801	0.524	0.698	0.379
SW 900	–	0.406	0.466	0.42	0.351	–	–	–	–	–	0.432	0.481	0.453	0.487	0.446	0.61	0.483	0.327
NCI-H2228	–	–	–	–	–	0.693	0.468	0.551	0.523	0.403	0.874	0.895	0.9	0.504	0.896	0.647	0.605	0.64
IA-LM	–	–	–	–	–	0.753	0.818	0.792	0.614	0.589	–	–	–	–	–	0.96	0.8	0.647
